# Assay results reported in patent US9840510B1, “Pyrazolo[1,5-a]pyrimidinyl carboxamide compounds and their use in the treatment of medical disorders” (Lysosomal Therapeutics Inc., priority 2016, dated 2017).
# Assay: Compound solubility in water
# Format: physicochemical
row,Compound,solubility [µg/mL]
1,Cc1cc(-c2occc2C#N)nc2c(C(=O)NC(C3CC3)C(F)(F)F)cnn12 (stereo not shown) [III-250],0.4
2,Cc1cnc(-c2cc(C)n3ncc(C(=O)NC(C4CC4)C(F)(F)F)c3n2)o1 (stereo not shown) [III-253],0.7
3,Cc1coc(-c2cc(C)n3ncc(C(=O)NC(C4CC4)C(F)(F)F)c3n2)n1 (stereo not shown) [III-254],0.6
4,Cc1coc(-c2cc(C)n3ncc(C(=O)N[C@H](C4CC4)C(F)(F)F)c3n2)n1 [III-255],1.6
5,Cc1coc(-c2cc(C)n3ncc(C(=O)N[C@@H](C4CC4)C(F)(F)F)c3n2)n1 [III-256],0.5
6,COc1ccncc1-c1cc(C)n2ncc(C(=O)NC(C3CC3)C(F)(F)F)c2n1 (stereo not shown) [III-263],8.9
7,Cc1cc(-c2ccc(F)o2)nc2c(C(=O)NC(C3CC3)C(F)(F)F)cnn12 (stereo not shown) [III-264],0.4
8,COc1cncc(-c2cc(C)n3ncc(C(=O)NC(C4CC4)C(F)(F)F)c3n2)c1 (stereo not shown) [III-265],1.3
9,COc1ccc(-c2cc(C)n3ncc(C(=O)NC(C4CC4)C(F)(F)F)c3n2)cn1 (stereo not shown) [III-268],1.2
10,COc1ccncc1-c1cc(C)n2ncc(C(=O)NC(C)C(F)(F)F)c2n1 (stereo not shown) [III-269],12.7
11,COc1cncc(-c2cc(C)n3ncc(C(=O)NC(C)C(F)(F)F)c3n2)c1 (stereo not shown) [III-270],4.9
12,COc1ccc(-c2cc(C)n3ncc(C(=O)NC(C)C(F)(F)F)c3n2)cn1 (stereo not shown) [III-271],2.3
13,COc1ccc(-c2cc(C)n3ncc(C(=O)N[C@H](C)C(F)(F)F)c3n2)cn1 [III-272],3.1
14,COc1ccc(-c2cc(C)n3ncc(C(=O)N[C@@H](C)C(F)(F)F)c3n2)cn1 [III-273],3.4
15,Cc1ccncc1-c1cc(C)n2ncc(C(=O)NC(C3CC3)C(F)(F)F)c2n1 (stereo not shown) [III-274],2.3
16,Cc1cncc(-c2cc(C)n3ncc(C(=O)NC(C4CC4)C(F)(F)F)c3n2)c1 (stereo not shown) [III-275],2.6
17,Cc1ccncc1-c1cc(C)n2ncc(C(=O)NC(C)C(F)(F)F)c2n1 (stereo not shown) [III-281],12.5
18,Cc1cncc(-c2cc(C)n3ncc(C(=O)NC(C)C(F)(F)F)c3n2)c1 (stereo not shown) [III-282],6.2
19,Cc1ccc(-c2cc(C)n3ncc(C(=O)NC(C)C(F)(F)F)c3n2)cn1 (stereo not shown) [III-283],12.7
20,Cc1cc(-c2cnccc2C(F)(F)F)nc2c(C(=O)NC(C)C(F)(F)F)cnn12 (stereo not shown) [III-284],13.2
21,Cc1cc(-c2cncc(C(F)(F)F)c2)nc2c(C(=O)NC(C)C(F)(F)F)cnn12 (stereo not shown) [III-285],1.2
22,Cc1cc(-c2cncc(C(F)(F)F)c2)nc2c(C(=O)N[C@H](C)C(F)(F)F)cnn12 [III-286],2.1
23,Cc1cc(-c2cncc(C(F)(F)F)c2)nc2c(C(=O)N[C@@H](C)C(F)(F)F)cnn12 [III-287],2.4
24,Cc1cc(-c2ccc(C(F)(F)F)nc2)nc2c(C(=O)NC(C)C(F)(F)F)cnn12 (stereo not shown) [III-288],1.4
25,Cc1cc(-c2ccc3c(c2)OCO3)nc2c(C(=O)NC(C)C(F)(F)F)cnn12 (stereo not shown) [III-289],0.8
26,CCCCO[C@H]1CC[C@H](NC(=O)c2cnn3c(C)cc(-c4cncc(Cl)c4)nc23)CC1 [III-293],0.3
27,Cc1cc(-c2cc(F)c3c(c2)OCO3)nc2c(C(=O)NC(C)C(F)(F)F)cnn12 (stereo not shown) [III-294],0.6
28,Cc1cc(-c2cc(F)c3ocnc3c2)nc2c(C(=O)NC(C)C(F)(F)F)cnn12 (stereo not shown) [III-295],3.4

# The remaining lines, values ahead:
row,solubility [µg/mL],Compound
1,3.9,Cc1nc(-c2cc(C)n3ncc(C(=O)NC(C)(C)C4CC4)c3n2)co1 [III-251]
2,11,Cc1ncc(-c2cc(C)n3ncc(C(=O)NC(C)(C)C4CC4)c3n2)o1 [III-252]
3,11.6,Cc1cc(N2CCCN(C(C)C)C2=O)nc2c(C(=O)NC(C3CC3)C(F)(F)F)cnn12 (stereo not shown) [III-257]
4,26.4,Cc1cc(N2CCCN(C(C)C)C2=O)nc2c(C(=O)NC(C)(C)C)cnn12 [III-258]
5,25.8,Cc1cc(N2CCCN(C(C)C)C2=O)nc2c(C(=O)NC(C)C(F)(F)F)cnn12 (stereo not shown) [III-259]
6,21,Cc1cc(N2CCCN(CC(F)(F)F)C2=O)nc2c(C(=O)NC(C3CC3)C(F)(F)F)cnn12 (stereo not shown) [III-260]
7,23,Cc1cc(N2CCCN(C(C)C)C2=O)nc2c(C(=O)NC(C)(C)C3CC3)cnn12 [III-261]
8,19,Cc1cc(N2CCCN(C(C)C)C2=O)nc2c(C(=O)NC(C)(C)C(F)(F)F)cnn12 [III-262]
9,1.8,Cc1cncc(-c2cc(C)n3ncc(C(=O)N[C@H](C4CC4)C(F)(F)F)c3n2)c1 [III-276]
10,5.3,Cc1cncc(-c2cc(C)n3ncc(C(=O)N[C@@H](C4CC4)C(F)(F)F)c3n2)c1 [III-277]
11,0.5,Cc1ccc(-c2cc(C)n3ncc(C(=O)NC(C4CC4)C(F)(F)F)c3n2)cn1 (stereo not shown) [III-278]
12,1.5,Cc1ccc(-c2cc(C)n3ncc(C(=O)N[C@H](C4CC4)C(F)(F)F)c3n2)cn1 [III-279]
13,1.3,Cc1ccc(-c2cc(C)n3ncc(C(=O)N[C@@H](C4CC4)C(F)(F)F)c3n2)cn1 [III-280]
14,2.1,Cc1cc(-c2cncc(Cl)c2)nc2c(C(=O)N[C@@H](C)C3CC3)cnn12 [III-290]
15,0.3,Cc1cc(-c2cncc(Cl)c2)nc2c(C(=O)NC(C)(C)C3CC3)cnn12 [III-292]
